Measured values taken from US20200131156A1, “ARYLSULFONYLPYROLECARBOXAMIDE DERIVATIVES AS Kv3 POTASSIUM CHANNEL ACTIVATORS” (H. Lundbeck A/S, priority 2018, published 2020).

How the values were obtained:
Type in all cases: cell-based
human Kv3.1b = target: T1, human Kv3.1b (Homo sapiens, UniProt P48547); experiment: Manual patch clamp electrophysiology, HEK-293 cells stably expressing human Kv3.1b; conditions: for hKv3.1 ECΔ30% increase: concentration increasing current by 30% at the −10 mV step; for hKv3.1 ECΔ5 mV: concentration that shifts activation threshold by 5 mV
T1 construct: expressed in transfected cells
T1 sequence (P48547 1-585 isoform P48547-2): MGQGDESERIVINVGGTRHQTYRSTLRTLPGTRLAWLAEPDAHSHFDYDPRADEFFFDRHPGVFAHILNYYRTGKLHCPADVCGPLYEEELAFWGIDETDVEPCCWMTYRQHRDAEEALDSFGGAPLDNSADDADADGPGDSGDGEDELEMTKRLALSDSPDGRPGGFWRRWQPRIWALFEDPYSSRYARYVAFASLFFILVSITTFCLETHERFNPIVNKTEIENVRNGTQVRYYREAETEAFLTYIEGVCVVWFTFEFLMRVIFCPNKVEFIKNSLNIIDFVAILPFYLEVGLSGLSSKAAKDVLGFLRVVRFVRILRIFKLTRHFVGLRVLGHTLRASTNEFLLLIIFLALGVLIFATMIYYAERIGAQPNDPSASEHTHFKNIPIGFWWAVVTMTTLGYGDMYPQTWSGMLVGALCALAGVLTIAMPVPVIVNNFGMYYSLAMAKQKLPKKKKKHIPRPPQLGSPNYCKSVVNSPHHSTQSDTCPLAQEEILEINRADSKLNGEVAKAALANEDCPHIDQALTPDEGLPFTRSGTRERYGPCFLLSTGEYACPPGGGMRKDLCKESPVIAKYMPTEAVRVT
Procedure: (§1) Manual Patch Clamp Electrophysiological Evaluation, hKv3.1, hKv3.2, hKv3.3, hKv3.4:
(§2) HEK-293 cells stably expressing human Kv3.1b, Kv3.2, Kv3.3 or Kv3.4 were used for the experiments.
(§3) Kv3.1b, Kv3.2: Cells were cultured in MEM medium supplemented with 10% Fetal Bovine Serum, 1% Penicillin/Streptomycin, 2 mM glutamine and 0.6 mg/mL geneticin. Cells were grown to 80-90% confluency at 37° C. and 5% CO2 Kv3.3 or Kv3.4: Cells were cultured in DMEM medium supplemented with 10% Fetal Bovine Serum, 500 ug/mL Geneticidin and 1% Penicillin/Streptomycin. Cells were grown to 80-90% confluency at 37° C. and 5% CO2.
(§4) On the day of the experiment the cells were detached by TrypLE and resuspended in culture medium. Cells were centrifuged, media removed and the cells were resuspended in extracellular buffer containing (in mM): 130 Na-gluconate, 20 NaCl, 4 KCl, 1 MgCl2, 1.8 CaCl2, 10 HEPES and 5 glucose, pH 7.3 adjusted with NaOH, 310-320 mOsm
(§5) Patch-clamp recordings were performed using a manual patch-clamp system (Axon Multiclamp 700B, Digidata 1440, pCLAMP 10, Molecular Devices Corporation) with a fast perfusion system (RSC-160 Rapid solution Changer, BioLogic). Whole-cell recordings were carried out using an intracellular solution containing (in mM): 100 K-gluconate, 40 KCl, 10 HEPES, 1 EGTA, 1 MgCl2, pH 7.2 adjusted with KOH, 290-300 mOsm. Cell membrane potentials were held at −80 mV and current voltage-relationship was generated by voltage steps (50 ms duration) from −100 mV to +10 mV (in 10 mV increments) and then back to −100 mV for 50 ms, with inter-sweep interval of 3 s. The peak current amplitude of −10 mV was monitored until stable (<5% change) by using one step voltage protocol. One IV protocol was run as baseline, then compound perfusion was stared and peak current stability was monitored with single step protocol prior to the IV protocol. Single concentrations were measured per cell. Acceptable cells had seal resistance >500 MOhm, Access resistance <10 MOhm, and leak current <200 pA.
(§6) Data analysis was performed using Clampfit (V10.2) in combination with Microsoft Excel™ (Redmond, Wash., USA). Current voltage relationships were plotted from the peak current (baseline subtracted) at the individual voltage steps normalized to the vehicle addition at 10 mV. The voltage threshold for channel activation was defined as 5% activation of the peak current at 10 mV in presence of vehicle. […] The concentration needed to shift the threshold 5 mV was readout from this curve (ECΔ5 mV), as well as the ability to increase the peak current at the −10 mV step (EC30% increase). […]

human Kv3.3 = target: T2, human Kv3.3 (Homo sapiens, UniProt Q14003); experiment: Manual patch clamp electrophysiology, HEK-293 cells stably expressing human Kv3.3; conditions: for hKv3.3 ECΔ30% increase: concentration increasing current by 30% at the −10 mV step; for hKv3.3 ECΔ5 mV: concentration that shifts activation threshold by 5 mV
T2 construct: expressed in transfected cells
T2 sequence (Q14003 1-757): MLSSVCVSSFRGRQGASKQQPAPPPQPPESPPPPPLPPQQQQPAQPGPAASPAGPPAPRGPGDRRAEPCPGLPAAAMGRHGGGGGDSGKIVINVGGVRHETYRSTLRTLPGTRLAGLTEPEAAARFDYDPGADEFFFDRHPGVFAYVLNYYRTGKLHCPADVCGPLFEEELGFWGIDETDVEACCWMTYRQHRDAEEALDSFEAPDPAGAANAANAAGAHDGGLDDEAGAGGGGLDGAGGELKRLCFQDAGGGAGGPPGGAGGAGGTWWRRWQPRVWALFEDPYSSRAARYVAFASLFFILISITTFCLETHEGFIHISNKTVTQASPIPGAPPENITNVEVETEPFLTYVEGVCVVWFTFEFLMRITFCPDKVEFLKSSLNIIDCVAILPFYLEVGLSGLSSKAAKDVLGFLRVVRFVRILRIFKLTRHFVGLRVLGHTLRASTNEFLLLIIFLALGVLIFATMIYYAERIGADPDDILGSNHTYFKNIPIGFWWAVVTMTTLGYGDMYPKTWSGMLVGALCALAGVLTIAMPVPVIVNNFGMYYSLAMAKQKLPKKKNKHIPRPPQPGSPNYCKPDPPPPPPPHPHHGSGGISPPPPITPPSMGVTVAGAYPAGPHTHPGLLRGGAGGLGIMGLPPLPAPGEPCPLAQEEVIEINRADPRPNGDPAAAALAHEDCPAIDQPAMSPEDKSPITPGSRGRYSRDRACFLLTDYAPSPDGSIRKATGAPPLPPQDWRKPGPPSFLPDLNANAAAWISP
Procedure: as §1, §2, §3, §4, §5, §6

hKv7.2/7.3 = hKv7.2/7.3 (Homo sapiens, UniProt O43525+O43526); experiment: Off-target Kv7.2/7.3 activation, fluorescence-based ion flux assay (FDSS); conditions: up to 30 μM
Procedure: The activity of selected compound examples at three key ion channel off targets was measured, namely Nav1.1, Kv1.1/1.2 and Kv7.2/7.3.
Effects of selected examples on activation of the voltage gated heteromeric potassium channel Kv7.2/7.3 was tested in a fluorescence-based ion flux assay at concentrations up to 30 μM.

## Cc1ccc(S(=O)(=O)n2ccc(C(=O)NCc3ncco3)c2)cc1 [Compound 86, 1-(4-methylbenzene-1-sulfonyl)-N-[(1,3-oxazol-2-yl)methyl]-1H-pyrrole-3-carboxamide]
Human Kv3.1b
  hKv3.1 ECΔ30% increase: 10.1 µM
  hKv3.1 ECΔ5 mV: 3.0 µM
Human Kv3.3
  hKv3.3 ECΔ30% increase: >30 µM
  hKv3.3 ECΔ5 mV: 4.9 µM
hKv7.2/7.3
  EC50: > 30 µM

## Cc1cnc(CNC(=O)c2ccn(S(=O)(=O)c3ccc(F)cc3C)c2)cn1 [Compound 90, 1-(4-fluoro-2-methylbenzene-1-sulfonyl)-N-[(5-methylpyrazin-2-yl)methyl]-1H-pyrrole-3-carboxamide]
Human Kv3.1b
  hKv3.1 ECΔ30% increase: 1.8 µM
  hKv3.1 ECΔ5 mV: 0.6 µM
Human Kv3.3
  hKv3.3 ECΔ30% increase: 2.7 µM
  hKv3.3 ECΔ5 mV: 2.7 µM
hKv7.2/7.3
  EC50: > 30 µM
